Columns and labels:
[1] = target: T1, Clover-SHIP1 and mRuby2-STAT3 (Mus musculus, UniProt Q9ES52); test: Acceptor photobleaching FRET analysis; type: cell-based; conditions: J17 SHIP1−/− cells expressing Clover-SHIP1/mRuby2-STAT3; 1 minute; 100 ng/ml IL10, IL6 or 20 μM I-2
T1 construct: expressed in transfected cells; host or cells: J17 (SHIP1-/- mouse macrophage line), lentiviral transduction
Procedure: Acceptor Photobleaching FRET analysis. J17 cells expressing Clover-SHIP1 and/or mRuby2-STAT3 were seeded at 50×10^4 cells per well in 8-well Ibidi p-Slides (Ibidi GmbH, Martinsried, Germany). After overnight incubation, cells were serum-starved with Mac media containing 1% serum for 3 hours before media replacement with Leibovitz's (L-15) media (Invitrogen, Burlington, ON) supplemented with 1% serum, 10 μM β-mercaptoethanol, 150 μM monothioglycolate and 1 mM L-glutamine for confocal microscopy imaging. Cells were imaged on a Leica SP8X on DMi8 confocal microscope system with a 63×/1.3 Gly HC PL APO CS2 objective using a white light laser line with 488 nm for donor excitement and 555 nm for acceptor excitement. Photobleaching FRET analysis was performed by measuring Clover-SHIP1 donor fluorescence intensity before and after bleaching the acceptor, mRuby2-STAT3, within a field of cells ‘region of interest’ (ROI), at 100% laser intensity for 60 frames. Acceptor photobleaching was performed first in resting cells then at 1 minute (±5 seconds) following ‘mock’ stimulation with L-15 media, or L-15 media containing 100 ng/ml IL10, IL6 or 20 μM compound I-2. Donor and acceptor fluorescence intensity of individual cells within the bleached ROI was quantified before and after bleaching. Percentage FRET efficiency was calculated as % FRETeff=100×(Dpost−Dpre)/Dpost where Dpre and Dpost represent Clover-SHIP1 donor fluorescence intensity before and after bleaching, respectively.

[2] = target: T2, SHIP1 and STAT3 (Mus musculus, UniProt Q9ES52, Y190F); test: In vitro pull down assay of His6-SHIP1 with STAT3; type: cell-based; conditions: Y190F vs wild-type SHIP1 cells; 5 minutes stimulation
T2 construct: expressed in transfected cells; host or cells: J17 (SHIP1-/- mouse BMDM-derived line), lentiviral transduction
T2 sequence (Q9ES52 1-1191 Y190F): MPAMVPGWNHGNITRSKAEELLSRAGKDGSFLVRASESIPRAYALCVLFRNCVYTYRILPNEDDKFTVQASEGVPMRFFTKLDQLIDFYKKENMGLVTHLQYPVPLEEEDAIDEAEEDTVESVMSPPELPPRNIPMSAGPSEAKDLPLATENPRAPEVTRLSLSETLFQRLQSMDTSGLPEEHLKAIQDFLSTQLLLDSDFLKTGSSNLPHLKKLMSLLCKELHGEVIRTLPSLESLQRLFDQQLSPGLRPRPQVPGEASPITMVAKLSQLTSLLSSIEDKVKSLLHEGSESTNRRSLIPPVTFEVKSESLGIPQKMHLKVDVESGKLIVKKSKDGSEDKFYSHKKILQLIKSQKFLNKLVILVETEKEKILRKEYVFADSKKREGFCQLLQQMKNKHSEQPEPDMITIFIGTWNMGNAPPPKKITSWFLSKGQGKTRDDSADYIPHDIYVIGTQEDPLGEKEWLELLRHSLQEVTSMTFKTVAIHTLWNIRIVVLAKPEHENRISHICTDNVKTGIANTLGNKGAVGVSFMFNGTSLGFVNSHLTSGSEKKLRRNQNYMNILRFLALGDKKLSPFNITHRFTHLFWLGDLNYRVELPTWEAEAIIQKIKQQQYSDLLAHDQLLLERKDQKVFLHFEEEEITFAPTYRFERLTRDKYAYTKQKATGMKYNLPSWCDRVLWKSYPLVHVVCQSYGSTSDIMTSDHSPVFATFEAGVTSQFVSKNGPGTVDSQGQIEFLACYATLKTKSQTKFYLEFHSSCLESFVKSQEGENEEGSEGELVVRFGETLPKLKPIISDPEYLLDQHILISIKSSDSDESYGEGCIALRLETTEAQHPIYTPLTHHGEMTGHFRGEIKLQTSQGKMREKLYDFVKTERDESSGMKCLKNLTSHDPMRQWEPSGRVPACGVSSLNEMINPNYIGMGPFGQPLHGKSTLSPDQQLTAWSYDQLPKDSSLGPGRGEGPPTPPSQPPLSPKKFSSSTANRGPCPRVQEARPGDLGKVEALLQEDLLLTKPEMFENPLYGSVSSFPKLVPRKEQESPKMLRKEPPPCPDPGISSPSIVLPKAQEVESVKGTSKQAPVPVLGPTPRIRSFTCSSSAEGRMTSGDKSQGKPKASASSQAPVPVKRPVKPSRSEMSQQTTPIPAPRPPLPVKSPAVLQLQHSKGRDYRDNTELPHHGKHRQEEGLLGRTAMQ
Procedure: In vitro pull down assay. J17 His6-SHIP1 and Y190F cells were seeded at 2×10^6 cells per well in a 6-well plate. After overnight incubation, fresh cell media was added for 30 minutes before stimulation with 100 ng/ml IL10, […] or 20 μM compound I-2 for 5 minutes. Cells were lysed with Protein Solubilization Buffer (PSB, 50 mM Hepes, pH 7.5, […], 10 mM Na Pyrophosphate, 2 mM NaVO4, 2 mM Na Molybdate, 2 mM EDTA) containing 1% octylglucoside, 0.01 M imidazole, and protease inhibitor cocktail (Roche Diagnostics, Laval, QC) for 30 minutes at 4° C. and centrifuged at 10000 rpm for 15 minutes. EDTA resistant Ni beads (Roche Diagnostics, Laval, QC) were added to supernatants and the mixture incubated at 4° C. for 1 hour before spinning down and washing of beads three times with 0.1% octylglucoside wash buffer in PSB. Bead samples and starting material cell lysates were separated on a 7.5% SDS-PAGE gel.
Immunoblotting. Protein lysates were separated on SDS-PAGE gels and transferred onto polyvinylidene fluoride (PVDF) membrane (Millipore, Etobicoke, ON). Membranes were blocked and probed, where appropriate, with the following primary antibodies overnight: SHIP1 (P1C1) (Santa Cruz Biotechnology), pSHIP1 (Y190) (Kinexus), STAT3 (9D8) (ThermoFisher Scientific), pSTAT3 (Y705) (Thermo Fisher Scientific), STAT1 (BD Transduction Laboratories), pSTAT1 (Y701) (Upstate Biotechnology), GAPDH and actin (Sigma-Aldrich). Membranes were developed with either Alexa Fluor® 660 anti-mouse IgG or Alexa Fluor® 680 anti-rabbit IgG antibodies (Thermo Fisher Scientific) and imaged using a LI-COR Odyssey Imager.

T1 sequence (Q9ES52 whole entry): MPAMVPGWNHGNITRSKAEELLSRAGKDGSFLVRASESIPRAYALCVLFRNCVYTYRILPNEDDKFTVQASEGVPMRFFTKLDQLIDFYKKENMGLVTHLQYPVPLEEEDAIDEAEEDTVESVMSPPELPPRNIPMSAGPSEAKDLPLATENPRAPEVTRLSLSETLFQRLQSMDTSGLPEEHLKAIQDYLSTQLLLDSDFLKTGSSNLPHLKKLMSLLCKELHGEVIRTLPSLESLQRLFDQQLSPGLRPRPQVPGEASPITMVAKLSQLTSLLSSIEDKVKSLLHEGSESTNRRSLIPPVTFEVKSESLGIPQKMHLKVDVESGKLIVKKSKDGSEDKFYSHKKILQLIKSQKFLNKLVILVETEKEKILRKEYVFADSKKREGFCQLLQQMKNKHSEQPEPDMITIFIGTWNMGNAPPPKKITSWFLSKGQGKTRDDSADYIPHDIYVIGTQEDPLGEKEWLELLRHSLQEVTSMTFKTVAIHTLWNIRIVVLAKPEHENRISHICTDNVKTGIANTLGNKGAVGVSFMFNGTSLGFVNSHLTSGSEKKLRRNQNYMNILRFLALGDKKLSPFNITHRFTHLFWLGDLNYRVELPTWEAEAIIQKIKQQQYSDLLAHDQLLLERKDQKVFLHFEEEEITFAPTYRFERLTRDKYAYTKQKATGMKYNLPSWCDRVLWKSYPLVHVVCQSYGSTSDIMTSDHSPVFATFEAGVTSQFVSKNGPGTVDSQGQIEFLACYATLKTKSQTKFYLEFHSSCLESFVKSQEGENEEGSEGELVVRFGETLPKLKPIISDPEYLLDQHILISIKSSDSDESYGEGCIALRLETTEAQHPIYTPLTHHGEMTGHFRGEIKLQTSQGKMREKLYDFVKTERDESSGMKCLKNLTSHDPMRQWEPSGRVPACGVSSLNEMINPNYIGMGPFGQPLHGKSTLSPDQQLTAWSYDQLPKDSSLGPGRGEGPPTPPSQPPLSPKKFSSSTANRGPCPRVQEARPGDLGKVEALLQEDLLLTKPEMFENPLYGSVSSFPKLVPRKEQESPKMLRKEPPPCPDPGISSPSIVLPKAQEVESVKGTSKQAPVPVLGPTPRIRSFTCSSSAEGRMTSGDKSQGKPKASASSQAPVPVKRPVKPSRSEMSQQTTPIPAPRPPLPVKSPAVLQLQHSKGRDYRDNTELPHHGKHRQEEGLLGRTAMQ
T1 sequence (P42227 whole entry partner): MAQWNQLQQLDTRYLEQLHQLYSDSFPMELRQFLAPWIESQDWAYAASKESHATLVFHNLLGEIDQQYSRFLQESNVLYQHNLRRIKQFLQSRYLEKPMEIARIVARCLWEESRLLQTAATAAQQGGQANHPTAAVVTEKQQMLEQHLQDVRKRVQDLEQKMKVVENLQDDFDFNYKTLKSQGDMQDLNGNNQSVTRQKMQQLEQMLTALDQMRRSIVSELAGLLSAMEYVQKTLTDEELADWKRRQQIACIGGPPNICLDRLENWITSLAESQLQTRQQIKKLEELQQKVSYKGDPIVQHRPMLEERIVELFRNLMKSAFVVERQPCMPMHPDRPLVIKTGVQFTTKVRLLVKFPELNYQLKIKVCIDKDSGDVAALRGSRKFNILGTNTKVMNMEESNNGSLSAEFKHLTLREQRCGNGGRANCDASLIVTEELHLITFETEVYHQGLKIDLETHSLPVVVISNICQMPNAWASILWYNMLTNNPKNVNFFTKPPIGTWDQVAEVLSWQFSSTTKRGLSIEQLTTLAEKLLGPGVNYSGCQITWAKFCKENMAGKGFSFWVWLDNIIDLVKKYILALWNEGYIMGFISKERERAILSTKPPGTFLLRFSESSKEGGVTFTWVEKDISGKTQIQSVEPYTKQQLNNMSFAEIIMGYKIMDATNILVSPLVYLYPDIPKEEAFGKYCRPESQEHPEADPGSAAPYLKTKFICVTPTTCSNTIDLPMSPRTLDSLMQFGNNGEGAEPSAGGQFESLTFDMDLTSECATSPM

Compound | Clover-mRuby2 FRET signal [1] | reduction of Y190F SHIP1 mutant ability to interact with STAT3 [2]
CC12CCC3C(C)(C)C(N)CCC3(C)C1Cc1cc(O)cc(O)c12 (stereo not shown) [Compound I-2] | increases | 2 fold
IL10: anti-inflammatory cytokine interleukin-10 | increases | 2 fold

Reference: patent publication US20230174571A1, “METHOD OF TREATING SHIP1-MEDIATED DISEASES USING PELOROL DERIVATIVES” (Zebrapeutics Inc., priority 2020, published 2023)
